The record followed here is patent publication US20260207637A1, “MODULATOR FOR PROMOTING BINDING OF BUTYROPHILIN 3A1/2A1” (priority 2023, published 2026).

One data set relates to MIApaca/FG2 cells. The data set is described as follows: EC50 assay of small molecule activated γδ T cells to kill MIApaca/FG2 tumor cells (3-fold dilution protocol). The class given is cell-based. The settings on record: 0.05-100 nM, read-out: MIApaca killing (EC50). The protocol: γδT cells and MIApaca/FG2 tumor cell lines were expanded and cultured in vitro. MIApaca/FG2 cells were digested, and the cells were counted and resuspended in DMEM complete medium, the density of the cell suspension was adjusted and added into a 96-well plate at 5×10^3 cells/100 […]/well for overnight incubation. On the next day, the test compound and the control compound were diluted at a 3-fold ratio with DMSO, and 4 μL of the diluted compound was added to 96 μL of culture medium for 25-fold dilution. 5 μL of 25-fold diluted compound was transferred to the corresponding well which had been plated with tumor cells, and the actual detection concentration was in the range of 0.05-100 nM. γδT cells were resuspended in γδT complete medium, and the density of the cell suspension was adjusted according to the effector-target ratio of E:T=2:1, and then the cell was added to the corresponding well at 1×10^4 cells/100 μL/well. After co-culture at 37° C., 5% CO2 for 20 hours, the cells were centrifuged. The supernatant was removed, and 50 μL of cell lysate containing fluorescein substrate was added to each well. After standing for 18 minutes in the dark, the signal of chemiluminescence was detected. The EC50 value was calculated by four-parameter fitting, with the corresponding signal value of the well with only tumor cells as the minimum killing value, and the corresponding value of the well without tumor cells as the maximum killing value. The killing data of MIApaca/FG2 cells is as follows: […]

The nature of data set [1]: Stability experiment of compounds in human liver microsomes. In kind it is in vitro ADME. Conditions: NADPH, 37° C., read-out: T1/2 in human liver microsomes. The procedure: Compounds were prepared as a 10 mM stock solution with DMSO and then diluted with 80% acetonitrile-water to a 100 μM working solution for later use. Human liver microsomes were obtained from BIOIVT.
(1) The liver microsomes taken out from the refrigerator were placed in a 37° C. water bath thermostatic oscillator, pre-incubated for 5 min, and thawed for later use.
(2) A certain amount of NADPH was weighed and added to an appropriate amount of magnesium chloride solution to dissolve into a 2 mM solution for later use.
(3) A mixed solution of the warm incubation system (containing no β-NADPH) was prepared according to the proportions in the “composition of the experimental warm incubation system” above and dispensed at 165 μL/tubes (45 μL/tube for the negative control group and 120 μL/tube for the positive control group).
(4) For the sample at 0 min: 200 μL of internal standard working precipitant was added and then 30 μL of NADPH solution was added.
(5) For other samples: 135 μL NADPH solution was added to initiate the reaction (45 μL magnesium chloride solution was added for the negative control group), and incubated in a 37° C. water bath for 5, 15, 30, and 60 min (incubated in a 37° C. water bath for 60 min for the negative control group), then 60 μL was sampled and added to 200 µL of precipitant containing internal standard.
(6) For the positive control group: 90 L NADPH solution was added to initiate the reaction, and incubated in a 37° C. water bath for 5, 15 min, then 60 μL was sampled and added to 200 μL of precipitant containing internal standard.
(7) For neat sample: 297 μL of water was pipetted into a tube, 1000 μL of internal standard working solution was added, and 3 μL of test compound working solution was added.
(8) All samples were vortexed and centrifuged.
(9) 150 μL of the supernatant was sampled and added to 150 μL of water, mixed uniformly by vortex, and analyzed by LC-MS/MS. The half-life stability data of human liver microsomes is as follows: […]

A short description of data set [2]: Binding rate test of compounds and human plasma protein (equilibrium dialysis). In kind it is in vitro ADME. The settings on record: human plasma, equilibrium dialysis 6 hours, 37° C. The procedure: (1) The dry dialysis membrane was soaked with ultrapure water for 20 min or more than 20 min, then soaked with 20% ethanol for 30 min to 1 h, and the membrane was rinsed with ultrapure water 2-3 times. Finally, the membrane was soaked with ultrapure water for 20 minutes for later use.
(2) The frozen plasma was thawed in a water bath at 37° C.
(3) The test compound was diluted into plasma preheated to 37° C. at a final concentration of 1 μM, and the final concentration of the control compound warfarin in plasma was 2 μM.
(4) The pre-treated dialysis membrane was assembled into the dialysis plate according to the specification of the product, and 120 μL of the receiving solution (100 mM phosphate buffer solution added 0.002% Tween 80) was added to one side of the permeable membrane in each dialysis well.
(5) 20 μL of each of the final solutions of the test compound and the control compound were added into a 96-well sample plate in duplicate, and the TO sample was obtained, which was stored in a refrigerator at −20° C. Another 20 μL of the above final solution was added to the other side of the membrane in the dialysis device in duplicate, and incubated at 37° C. by shaking at constant temperature for 6 hours.
(6) After 6 hours of incubation, 20 L of each of the dialyzed receiving solution and the administered plasma were weighed to obtain sample B and sample A in duplicate. The corresponding volume of corresponding blank plasma or receiving solution was added to sample B and sample A, respectively, so that the volume ratio of plasma to buffer in each sample well was 1:1. 300 μL of acetonitrile solution containing internal standard was added to all sample wells, and centrifuged after mixed uniformly.
(7) 200 μL of ultrapure water (150 μL for the control group) was added into the corresponding sample wells of the 96-well sample plate, and 300 μL of the supernatant (150 μL for the control group) was added into the sample well; the samples were analyzed after mixed uniformly. The free percentage and recovery rate of the compound in plasma were calculated using the following formula: Plasma protein binding rate (%)=1−free percentage, wherein free percentage (%)=CB/CA
wherein CB is the concentration of the compound in the receiving solution after equilibrium dialysis, CA is the concentration of the compound in the drug-dosed plasma after equilibrium dialysis, and CT0 is the initial concentration of the compound in plasma.

Setting [3] is: γδT cells + MIApaca/FG2, E:T=2:1, co-culture 20 hours.
[4] abbreviates: Homo sapiens, MIA PaCa-2, γδT cells + MIApaca/FG2, E:T=2:1, co-culture 20 hours.

Each structure is given as a SMILES string. Where two headings read alike, the source gives them in different places. A value given as a limit tells only on which side of the number the result lay.

In the case of `C/C(=C\CCP(=O)(NC(C)(C)C(=O)O[C@@H]1CCOC1)Oc1ccccc1)CO` (stereo partly drawn) [Compound 26, (R)-tetrahydrofuran-3-yl 2-((((E)-5-hydroxy-4-methylpent-3-en-1-yl)(phenoxy)phosphoryl)amino)-2-methylpropanoate], the concentration giving a half-maximal response (EC50) in the data set on MIApaca/FG2 cells (setting [3]) is 0.1 nM.
The same measure, in the same setting: next, `C/C(=C\CCP(=O)(N[C@@H](C)C(=O)OC1CCS(=O)(=O)CC1)Oc1ccccc1)CO` (stereo partly drawn) [Compound 28, 1,1-Dioxotetrahydro-2H-thiopyran-4-yl (((E)-5-hydroxy-4-methylpent-3-en-1-yl)(phenoxy)phosphoryl)-L-alaninate]: 0.88 nM.
Consider `C/C(=C\CCP(=O)(N[C@@H](C)C(=O)O[C@@H]1CCNC(=O)C1)Oc1ccccc1)CO` (stereo partly drawn) [Compound 35, (R)-2-piperidone-4-yl (((E)-5-hydroxy-4-methylpent-3-en-1-yl)(phenoxy)phosphoryl)-L-alaninate], for which the EC50 in the data set on MIApaca/FG2 cells (setting [4]) worked out at 2.15 nM. Moreover, the half-life in data set [1] stood at 82.5 min. In data set [2], this compound gave a fraction unbound at 6 h, 1 μM of 0.429.
Taken in the same sequence, the figures for `C/C(=C\CC[P@@](=O)(N[C@@H](C)C(=O)O[C@@H]1CCOC1)Oc1ccccc1)CO` (single isomer, unassigned) [Compound 18] were 0.2 nM, 20.9 min and 0.178.
Turning to `CC(C)OC(=O)[C@H](C)NP(=O)(CC/C=C(\F)CO)Oc1ccccc1` (stereo partly drawn) [Compound 23, Isopropyl (((Z)-4-fluoro-5-hydroxy-3-en-1-yl)(phenoxy)phosphoryl)-L-alaninate], the EC50 with MIApaca/FG2 cells (setting [3]) came to 3.96 nM.
Take `C/C(=C\CCP(=O)(N[C@@H](C)C(=O)OC1(C#N)CCCC1)Oc1ccccc1)CO` (stereo partly drawn) [Compound 36, 1-Cyanocyclopentyl (((E)-5-hydroxy-4-methylpent-3-en-1-yl)(phenoxy)phosphoryl)-L-alaninate]: in the data set on MIApaca/FG2 cells (setting [4]), the EC50 is below 0.05 nM. Besides, in data set [1], the half-life is 3.08 min. The same compound showed a fraction unbound at 6 h, 1 μM in data set [2] of 0.038.
On to `C/C(=C\CCP(=O)(N[C@@H](C)C(=O)OCCO)Oc1ccccc1)CO` (stereo partly drawn) [Compound 25, 2-Hydroxyethyl (((E)-5-hydroxy-4-methylpent-3-en-1-yl)(phenoxy)phosphoryl)-L-alaninate], for which the EC50 with MIApaca/FG2 cells (setting [3]) was found to be 0.17 nM.
`C/C(=C\CCP(=O)(N[C@@H](C)C(=O)O[C@@H]1CCOC1)Oc1ccccc1)CO` (stereo partly drawn) [Compound 7, (R)-Tetrahydrofuran-3-yl (((E)-5-hydroxy-4-methylpent-3-en-1-yl)(phenoxy)phosphoryl)-L-alaninate]: in data set [1], the half-life is 21.6 min. Moreover, the fraction unbound at 6 h, 1 μM in data set [2] is 0.222.
With `CC(C)OC(=O)[C@H](C)NP(=O)(CC/C=C(/CO)C(F)(F)F)Oc1ccccc1` (stereo partly drawn) [Compound 24, isopropyl (phenoxy((Z)-5,5,5-trifluoro-4-(hydroxymethyl)pent-3-en-1-yl)phosphoryl)-L-alaninate], in the data set on MIApaca/FG2 cells (setting [3]), the EC50 was determined as 0.78 nM.
For `C/C(=C\CCP(=O)(N[C@@H](C)C(=O)OC1CCOCC1)Oc1ccccc1)CO` (stereo partly drawn) [Compound 20], the EC50 with MIApaca/FG2 cells (setting [4]) is 0.48 nM. Further, in data set [1], the half-life stood at 24 min. Further, the fraction unbound at 6 h, 1 μM in data set [2] is 0.227.
`C/C(=C\CCP(=O)(N[C@@H](C)C(=O)O[C@H]1C[C@@H](C)O[C@@H](C)C1)Oc1ccccc1)CO` (stereo partly drawn) [Compound 34, (2R,4r,6S)-2,6-dimethyltetrahydro-2H-pyran-4-yl (((E)-5-hydroxy-4-methylpent-3-en-1-yl)(phenoxy)phosphoryl)-L-alaninate]: the EC50 in the data set on MIApaca/FG2 cells (setting [3]) came to 1.03 nM.
On the same count and under the same terms, next, `C/C(=C\CCP(=O)(N[C@@H](C)C(=O)O[C@@H]1CCOC1)Oc1ccc(Cl)cc1)CO` (stereo partly drawn) [Compound 15]: 0.2 nM.
With `C/C(=C\CCP(=O)(N[C@@H](C)C(=O)O[C@H]1CCOC1)Oc1ccccc1)CO` (stereo partly drawn) [Compound 8, (S)-tetrahydrofuran-3-yl (((E)-5-hydroxy-4-methylpent-3-en-1-yl)(phenoxy)phosphoryl)-L-alaninate], in data set [1], the half-life worked out at 27.3 min. In data set [2], this compound had a fraction unbound at 6 h, 1 μM of 0.168.
Regarding `C[C@H](NP(=O)(CC/C=C(/CO)C(F)(F)F)Oc1ccccc1)C(=O)O[C@@H]1CCOC1` (stereo partly drawn) [Compound 27, (R)-tetrahydrofuran-3-yl (phenoxy((Z)-5,5,5-trifluoro-4-(hydroxymethyl)pent-3-en-1-yl)phosphoryl)-L-alaninate], the EC50 in the data set with MIApaca/FG2 cells (setting [4]) stood at 0.23 nM. Moreover, the half-life in data set [1] is 10.5 min. The compound also showed a fraction unbound at 6 h, 1 μM in data set [2] of 0.193.
As to `C/C(=C\CCP(=O)(N[C@@H](C)C(=O)OC1CC2(COC2)C1)Oc1ccccc1)CO` (stereo partly drawn) [Compound 30, 2-Oxaspiro[3.3]heptan-6-yl (((E)-5-hydroxy-4-methylpent-3-en-1-yl)(phenoxy)phosphoryl)-L-alaninate], in the data set with MIApaca/FG2 cells (setting [4]), the EC50 was 0.11 nM. Also, the half-life in data set [1] was found to be 24.4 min. The compound further gave a fraction unbound at 6 h, 1 μM in data set [2] of 0.359.
In the case of `C/C(=C\CCP(=O)(N[C@@H](C)C(=O)O[C@@H]1CCO[C@H](C)C1)Oc1ccccc1)CO` (stereo partly drawn) [Compound 33], the EC50 in the data set with MIApaca/FG2 cells (setting [4]) was determined as 0.65 nM. For the same compound, in data set [1], the half-life is 19.9 min. In data set [2], this compound had a fraction unbound at 6 h, 1 μM of 0.192.
In the case of `C/C(=C\CC(F)(F)P(=O)(N[C@@H](C)C(=O)O[C@@H]1CCOC1)Oc1ccccc1)CO` (stereo partly drawn) [Compound 37, (R)-tetrahydrofuran-3-yl (((E)-1,1-difluoro-5-hydroxy-4-methylpent-3-en-1-yl)(phenoxy)phosphoryl)-L-alaninate], the EC50 with MIApaca/FG2 cells (setting [4]) amounted to 0.2 nM. In addition, the half-life in data set [1] turned out to be 8.11 min. In data set [2], this compound had a fraction unbound at 6 h, 1 μM of 0.098.
For the compound `C/C(=C\CCP(=O)(N[C@@H](C)C(=O)O[C@@H]1CCOC1)Oc1cccc2ccccc12)CO` (stereo partly drawn) [Compound 17], the EC50 in the data set with MIApaca/FG2 cells (setting [3]) came out at 0.12 nM.
Still for that read-out and setting: next, `C/C(=C\CC(F)(F)P(=O)(N[C@@H](C)C(=O)OC1CCOCC1)Oc1ccccc1)CO` (stereo partly drawn) [Compound 38]: 0.65 nM; `C/C(=C\CCP(=O)(N[C@@H](C)C(=O)O[C@@H]1CCOC1)Oc1ccc(C)cc1)CO` (stereo partly drawn) [Compound 16]: 0.55 nM.
For `CC(=O)N1CCC(OC(=O)[C@H](C)NP(=O)(CC/C=C(\C)CO)Oc2ccccc2)CC1` (stereo partly drawn) [Compound 29], the EC50 with MIApaca/FG2 cells (setting [3]) amounted to 1.63 nM.
